Experimental findings from publication PMC9611758, “Bioactive Platinum(IV) Complexes Incorporating Halogenated Phenylacetates” (Molecules, 2022) are described below.

Format in all cases: cell-based, human
One series deals with A431 skin. Description: MTT growth inhibition assay, A431. Particulars: Homo sapiens, A-431, 72 h.
In another series the test system is HT29 colon. The series is described as follows: MTT growth inhibition assay, HT29. As to conditions: Homo sapiens, HT-29; MTT assay, 72 h.
In the next series the test system is Du145 prostate. Description: MTT growth inhibition assay, Du145. Particulars: Homo sapiens, DU-145; MTT assay, 72 h.
A further series relates to panel of cell lines. The series is described as follows: MTT growth inhibition assay, whole panel of cell lines. Particulars: 72 h; for GI50: Homo sapiens, average over the cell lines tested, MTT assay; for cytotoxicity: panel of cell lines, MTT. On the technique in general: Tetrazolium dyes change colour on reduction, which living cells bring about.
The test system of a further series is HT29 colon cells. Description: ROS detection assay (DCFH-DA). As to conditions: for ROS production relative to the control: HT29 colon cells, 24, 48 and 72 h; for ROS production 24 h / ROS production 48 h / ROS production 72 h: HT29 colon cells, treated at GI50 concentration (TBHP positive control 20 μM). An excerpt:
Although ROS is required for cancer cell function and progression, it can induce programmed cell death or apoptosis. […] In this study, we report the ROS activity of the studied platinum(IV) complexes, 1–8, together with the individual axial ligands (4-CPA, 4-FPA, 4-BPA, and 4-IPA) in the human cancer cell line, HT29 colon (Figure 19, Table 8, and Figure S95). The ROS potential of their platinum(II) and platinum(IV) precursors in the same cell line is also presented for comparison purposes (Table 8). […] HT29 colon cells were stained by DCFH-DA and then treated with the complexes at each specific GI50 concentration. Upon ROS production, the DCFH-DA produced dichlorodihydrofluorescein, a fluorescent product. The measured fluorescence was, therefore, proportional to the produced ROS.
To investigate the presence of ROS in treated cells, a DCFDA/H2DCFDA-cellular ROS Assay Kit (Abcam, Cambridge, MA, USA) was used, as previously described. A total of 25,000 cells/mL of HT29 cells in DMEM were seeded in 96-well plates. Cells were washed with 1X kit buffer, and then stained with 25 μM 2′,7′-dichlorofluorescein diacetate (DCFH-DA) and incubated for 45 min. DCFH-DA was then removed, and cells were then re-washed with 1X kit buffer, after which phenol red free media was added. Cells were then treated with a GI50 drug concentration for each complex. The plates were directly scanned to measure fluorescence (relative fluorescence units (RFU)) at different time points using the Glo-Max®-Multimode microplate reader (Promega Corporation, Alexandra, VIC, Australia) at an excitation/emission of 485/535 nm. To generate the positive control (20 μM tert-butyl hydroperoxide (TBHP)), cells were washed with 1X kit buffer, and stained with DCFDA (25 μM) for 45 min; this was removed and TBHP was added in phenol red free media, and the resulting solution was scanned as described above.

The test system of a further series is U87 glioblastoma. Description: MTT growth inhibition assay, U87. Particulars: Homo sapiens, 72 h.
The test system of series [1] is non-tumour derived MCF10A breast line. The series is described as follows: MTT growth inhibition assay, MCF10A. Particulars: Homo sapiens, MCF-10A, 72 h.
The subject of a further series is A2780 ovarian. The series is described as follows: MTT growth inhibition assay, A2780. As to conditions: Homo sapiens, A2780, 72 h.
Another series concerns MIA pancreas. The series is described as follows: MTT growth inhibition assay, MIA. As to conditions: Homo sapiens, 72 h.
The test system of series [2] is ADDP-resistant ovarian variant. Description: MTT growth inhibition assay, ADDP. Particulars: Homo sapiens; MTT assay, 72 h.
The next series deals with MCF-7 breast. The series is described as follows: MTT growth inhibition assay, MCF-7. Particulars: Homo sapiens, MCF7; MTT assay, 72 h.
A further series relates to SJ-G2 glioblastoma. The series is described as follows: MTT growth inhibition assay, SJ-G2. As to conditions: Homo sapiens, SJ-G2, 72 h.
For a further series, the system named is BE2-C neuroblastoma. The series is described as follows: MTT growth inhibition assay, BE2-C. As to conditions: Homo sapiens, BE(2)-C, 72 h.
The test system of a further series is H460 lung. Description: MTT growth inhibition assay, H460. As to conditions: Homo sapiens, NCI-H460, 72 h.

Take `O=C(O)Cc1ccc(Br)cc1` [Complex 4-BPA, 4-bromophenylacetic acid]: the 50% growth inhibitory concentration (GI50) (in the series with A431 skin; in the series with HT29 colon; with Du145 prostate; with panel of cell lines; in the series on U87 glioblastoma; in series [1]) was over 50 µM each time. Also, the GI50 (in the series on A2780 ovarian; with MIA pancreas; in [2]; in the series on MCF-7 breast; with SJ-G2 glioblastoma; in the series with BE2-C neuroblastoma) was over 50 µM each time. The GI50 (as a rule, the concentration at which growth is held to half of that of the control) in the series with H460 lung was over 50 µM. In addition, the “cytotoxicity” value with panel of cell lines is on record as “did not demonstrate significant cytotoxicity”. Besides, in the series with HT29 colon cells, the “ROS production relative to the control” value is “increase in ROS production relative to the control”. The “ROS production 24 h” value in the series with HT29 colon cells stood at 172 ± 9 RFU. The “ROS production 48 h” value in the series with HT29 colon cells is on record as 198 ± 10 RFU. The “ROS production 72 h” value in the series on HT29 colon cells worked out at 222 ± 13 RFU.
Turning to `O=C(O)Cc1ccc(Cl)cc1` [Complex 4-CPA, 4-chlorophenylacetic acid], the GI50 (in the series with A431 skin; with HT29 colon; with Du145 prostate; with panel of cell lines; in the series with U87 glioblastoma; in series [1]) was over 50 µM each time. In addition, the GI50 (in the series with A2780 ovarian; in the series with MIA pancreas; in series [2]; in the series with MCF-7 breast; in the series with SJ-G2 glioblastoma; in the series on BE2-C neuroblastoma) was over 50 µM throughout. Moreover, the GI50 in the series on H460 lung is over 50 µM. For the same molecule, the “cytotoxicity” value in the series on panel of cell lines is “did not demonstrate significant cytotoxicity”. Further, the “ROS production relative to the control” value in the series on HT29 colon cells was “increase in ROS production relative to the control”. In addition, in the series on HT29 colon cells, the “ROS production 24 h” value is listed as 167 ± 13.2 RFU. For the same molecule, the “ROS production 48 h” value in the series on HT29 colon cells is 207 ± 14.5 RFU. The “ROS production 72 h” value in the series with HT29 colon cells stood at 233 ± 10.4 RFU.
`O=C(O)Cc1ccc(F)cc1` [Complex 4-FPA, 4-fluorophenylacetic acid]: the GI50 (in the series with A431 skin; in the series on HT29 colon; with Du145 prostate; with panel of cell lines; in the series with U87 glioblastoma; in series [1]) was over 50 µM in each case. In addition, the GI50 (in the series on A2780 ovarian; with MIA pancreas; in series [2]; in the series with MCF-7 breast; with SJ-G2 glioblastoma; in the series on BE2-C neuroblastoma) was over 50 µM throughout. Moreover, in the series with H460 lung, the GI50 was over 50 µM. Besides, the “cytotoxicity” value with panel of cell lines is “did not demonstrate significant cytotoxicity”. Moreover, the “ROS production relative to the control” value in the series with HT29 colon cells is given as “increase in ROS production relative to the control”. Moreover, the “ROS production 24 h” value in the series with HT29 colon cells is reported as 197 ± 8 RFU. Further, the “ROS production 48 h” value in the series with HT29 colon cells came out at 224 ± 11 RFU. In the series with HT29 colon cells, the “ROS production 72 h” value is given as 236 ± 6 RFU.
Consider `O=C(O)Cc1ccc(I)cc1` [Complex 4-IPA, 4-iodophenylacetic acid], for which the GI50 (in the series on A431 skin; in the series on HT29 colon; with Du145 prostate; in the series on panel of cell lines; with U87 glioblastoma; in [1]) was over 50 µM in each case. Also, the GI50 (with A2780 ovarian; in the series on MIA pancreas; in series [2]; with MCF-7 breast; in the series on SJ-G2 glioblastoma; with BE2-C neuroblastoma) was over 50 µM each time. Moreover, the GI50 in the series with H460 lung is over 50 µM. In addition, in the series on panel of cell lines, the “cytotoxicity” value was “did not demonstrate significant cytotoxicity”. Moreover, the “ROS production relative to the control” value with HT29 colon cells is reported as “increase in ROS production relative to the control”. Moreover, the “ROS production 24 h” value in the series with HT29 colon cells was 137 ± 7 RFU. Moreover, in the series on HT29 colon cells, the “ROS production 48 h” value is reported as 182 ± 12 RFU. Also, the “ROS production 72 h” value in the series with HT29 colon cells turned out to be 206 ± 9 RFU.
For the molecule `CC(C)(C)OO` [TBHP, tert-butyl hydroperoxide], in the series with HT29 colon cells, the “ROS production 24 h” value was 514 ± 3 RFU, the “ROS production 48 h” value is reported as 336 ± 2 RFU and the “ROS production 72 h” value stood at 332 ± 5 RFU.
